# Source: patent US9567301B2, “Pyrrol-1-yl benzoic acid derivatives useful as myc inhibitors” (Whitehead Institute for Biomedical Research, priority 2012, dated 2017)
# Tested on: H2171 cells
# Test: Cell viability assay (ATPlite), H2171
# Type: cell-based, human
# Conditions: Homo sapiens, NCI-H2171, 72 h, cell viability, three days, ATPlite; NA: inactive under assay conditions
# Experimental: This assay was used for the H2171 and MM1S cell data shown in Table 2, and for the Jurkat (an immortalized line of human T lymphocyte cells), Ly1 (OCI-Ly1 human non-Hodgkin lymphoma cell line), Ly4 (OCI-Ly4 human non-Hodgkin lymphoma cell line), H2172 (NCI-H2172 human non-small cell lung cancer cell line), and CA-46 (a human Burkitt's lymphoma cell line) cell data shown in Table 3 and FIG. 12. Cells were counted and adjusted to 60,000 cells/mL. Using a Biotek EL406, 50 μL of cells are media were distributed into 384 well white plates from Thermo. Immediately after plating, compound in DMSO was distributed to plates. For large plate sets, cells were returned to 37° C. incubator while not in use.
# Compounds were added to plates using a 100 nL 384 well pin transfer manifold on a Janus workstation. Stocks were arrayed in 10 point quadruplicate dose response in DMSO stock in 384 well Greiner compound plates. After addition of compound, plates were incubated for three days in a 37° C. incubator.
# Cell viability was read out using ATPlite from Perkin Elmer. Plates were removed from the incubator and brought to room temperature prior to use. Lyophilized powder was resuspended in lysis buffer and diluted 1:2 with DI water. 25 μL of this solution was added to each well using the Biotek liquid handler. Plates were sealed with adherent aluminum seals prior to vortexing and spinning down at 1000 g for 1 minute. Plates were incubated for 15 minutes at room temperature before signal was read on an Envision Plate Reader.
row,SMILES,EC50 [µM]
1,Cc1ccc(C)n1-c1ccc(C(=O)O)cc1O [Compound 7],122
2,Cc1cc(C(=O)O)ccc1-n1c(C)ccc1C [Compound 11],60.6
3,Cc1ccc(C)n1-c1cc(C(=O)N2CCOCC2)ccc1C(=O)O [Compound 75],114
4,Cc1ccc(C)n1-c1cc(C(=O)N/N=C/c2ncc[nH]2)ccc1C(=O)O [Compound 81],106
5,CC(=O)OCOC(=O)c1ccc(C(=O)N/N=C/c2c[nH]cn2)cc1-n1c(C)ccc1C [Compound 108],0.556

# Target: c-Myc/Max/Ebox DNA (Homo sapiens, UniProt P01106)
# Sequence (P01106 16-454): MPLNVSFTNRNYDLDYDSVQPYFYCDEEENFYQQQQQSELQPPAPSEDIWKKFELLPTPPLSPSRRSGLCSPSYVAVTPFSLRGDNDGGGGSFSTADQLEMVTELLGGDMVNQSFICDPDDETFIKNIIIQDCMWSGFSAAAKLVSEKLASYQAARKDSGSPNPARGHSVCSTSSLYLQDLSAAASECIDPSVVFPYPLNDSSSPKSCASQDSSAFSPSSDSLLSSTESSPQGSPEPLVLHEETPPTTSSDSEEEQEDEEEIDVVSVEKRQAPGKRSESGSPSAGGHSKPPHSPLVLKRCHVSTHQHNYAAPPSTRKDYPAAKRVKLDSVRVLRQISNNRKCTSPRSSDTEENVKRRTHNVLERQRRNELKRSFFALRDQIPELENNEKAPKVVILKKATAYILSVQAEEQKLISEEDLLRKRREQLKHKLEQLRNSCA
# Test: c-Myc/Max/Ebox DNA AlphaScreen assay
# Type: binding
# Set-up: An exemplary assay uses full-length human c-Myc and Max proteins; his6 (cleaved yes); made in house
# Conditions: c-Myc/Max/Ebox DNA AlphaScreen; NA: inactive under assay conditions; read-out: Biochemical IC50
# Experimental: This protocol was used to generate the biochemical data in Table 2 and FIG. 11. The primary AlphaScreen assay is amenable to 384-well and 1536-well plate formats for HTS. Human his6-c-Myc and his6-Max were used with biotinylated DNA containing a single Ebox sequence (biotin[…]) purchased from MWG Operon. Free c-Myc was generated from his6-c-Myc through thrombin cleavage of the his6 tag. For 384-well plate assays, 10 μL of a 2× solution of free c-Myc (25 nM final), Ni++-coated Acceptor Bead (25 μg/ml final), and biotinylated Ebox oligo (10 nM final) were added to 384-well plates with a Biotek EL406 liquid handler. 100 nL of compounds from stock plates were added by pin transfer using a Janus Workstation (PerkinElmer), allowing the compounds to interact with c-Myc prior to c-Myc binding with Max. In the current assay, DMSO was not allowed to exceed 2% v/v of the assay. 10 μl of 2× master mix containing streptavidin-coated donor beads (25 μg/ml final) and his6-Max (1.25 nM final) were added. AlphaScreen measurements were performed on an Envision 2104 (PerkinElmer) utilizing the manufacturer's protocol. The assay can also be performed in 1536-plate format with 8 μL total volume using two 4 μL additions (instead of […] and 10 μL respectively).
# Assays are performed with minor modifications from the manufacturer's protocol (PerkinElmer). Both master mixes were made in room temperature assay buffer (50 mM HEPES, 150 mM NaCl, 0.2% w/v BSA, 0.02% w/v Tween20, 40 μg/ml glycogen, 500 μM DTT, pH 8.0, DTT and glycogen added fresh). Alpha beads were added to respective master solutions and wrapped in foil. All subsequent steps were performed in low light conditions. Solution 1: 2× solution of components with final concentrations of cMyc (25 nM), Ni-coated Acceptor Bead (25 μg/ml), and biotinylated Ebox oligo (10 nM). Solution 2: 2× solution of streptavidin-coated donor beads (25 μg/ml final) and his6-Max (1.25 nM final). […] Solution 1 were added to 384-well plate (AlphaPlate-384, PerkinElmer) with Biotek EL406 liquid handler and the plates were centrifuged at 1000 rpm for 1 minute. 100 nL of compounds from stock plates were added by pin transfer using a Janus Workstation. 10 μL Solution 2 were added with the liquid handler. Plates were sealed with foil to block light exposure and prevent evaporation. Plates were centrifuged at 1000 rpm for 1 minute followed by 2 hour incubation. AlphaScreen measurements were performed on an Envision 2104 utilizing the manufacturer's protocol. Excitation was at 680 nm for donor bead release of singlet oxygen and emission was read with a bandpass filter from 520-620 nm. Glycogen: Roche Diagnostics #10901393001. Plate 1536: Perkin Elmer, 6004350. Plate 384: Perkin Elmer, 6005350. Nickel-His Alpha Beads: 6760619R.
row,SMILES,IC50 [µM]
1,Cc1ccc(C)n1-c1cccc(C(=O)O)c1 [Compound 2],74.5
2,Cc1ccc(C)n1-c1ccc(C(=O)O)cc1 [Compound 3],287
3,Cc1ccc(C)n1-c1cc(C(=O)O)ccc1O [Compound 4],34.1
4,Cc1ccc(C)n1-c1ccc(C(=O)O)c(O)c1 [Compound 5],4.29
5,Cc1ccc(C)n1-c1ccc(C(=O)O)cc1O [Compound 7],23.5
6,Cc1cc(C(=O)O)ccc1-n1c(C)ccc1C [Compound 11],45.8
7,COC(=O)c1ccc(-n2c(C)ccc2C)cc1O [Compound 18],1.54
8,O=C(O)c1ccccc1-n1c(-c2ccccc2)cc2c1CCCC2=O [Compound 29],252
9,O=C(O)c1cc(-n2cccc2)ccc1N1CCOCC1 [Compound 30],273
10,CCCC(=O)Nc1ccc(N2CCCCCC2)cc1C(=O)O [Compound 31],172
11,CCCCC(=O)Nc1ccc(N2CCC(C)CC2)c(C(=O)O)c1 [Compound 32],881
12,CC(=O)Nc1ccc(N2CCCCCC2)c(C(=O)O)c1 [Compound 33],171
13,CC(=O)Nc1ccc(N2CCCC(C)C2)c(C(=O)O)c1 (stereo not drawn) [Compound 34],191
14,Cc1ccc(C)n1-c1ccc(Cl)cc1C(=O)O [Compound 35],31.3
15,Cc1ccc(C)n1-c1ccc(Br)cc1C(=O)O [Compound 36],64.7
16,COc1cc(C(=O)O)c(-n2c(C)ccc2C)cc1OC [Compound 37],62.7
17,Cc1ccc(C)n1-c1cc(Cl)ccc1C(=O)O [Compound 38],63.7
18,CC(=O)Nc1ccc(-n2c(C)ccc2C)c(C(=O)O)c1 [Compound 40],34.4
19,Cc1ccc(-c2ccccc2)n1-c1ccccc1C(=O)O [Compound 41],324
20,Cc1cc2c(n1-c1cccc(C(=O)O)c1)CC(C)(C)CC2=O [Compound 42],697
21,CC1(C)CC(=O)c2cc(CC(=O)O)n(-c3cccc(C(=O)O)c3)c2C1 [Compound 43],197

row,SMILES,IC50 [µM]
1,Cc1ccc(C(=O)O)cc1-n1c(C)cc(CN2CCC(N)(C(=O)O)C2)c1C (stereo not drawn) [Compound 44],194
2,Cc1ccc(C(=O)O)cc1-n1c(C)cc(CN2C[C@H](N(C)C)C[C@H]2CO)c1C [Compound 45],115
3,Cc1cc(/C=C2\C(=O)NC(=O)N(C)C2=O)c(C)n1-c1cccc(C(=O)O)c1 [Compound 46],76.8
4,CC(=O)c1cc(C)n(-c2ccc(C(=O)O)cc2)c1C [Compound 47],166
5,Cc1cc2c(n1-c1ccc(C(=O)O)cc1)CCCCC2 [Compound 48],51.8
6,Cc1c(-c2ccccc2)c2c(n1-c1ccc(C(=O)O)cc1)CCCC2 [Compound 49],42
7,Cc1cc2c(n1-c1ccc(C(=O)O)cc1)CC(C)(C)CC2=O [Compound 50],446
8,CC1(C)CC(=O)c2cc(CC(=O)O)n(-c3ccc(C(=O)O)cc3)c2C1 [Compound 51],523
9,Cc1cc(/C=C(\C#N)C(=O)Nc2ccc(O)cc2)c(C)n1-c1ccccc1C(=O)O [Compound 52],36.2
10,Cc1ccccc1N1C(=O)NC(=O)/C(=C\c2cc(C)n(-c3ccccc3C(=O)O)c2C)C1=O [Compound 53],2510
11,Cc1cc(/C=N/NC(N)=S)c(C)n1-c1ccccc1C(=O)O [Compound 54],16.3
12,Cc1cc(/C=C2\C(=O)NC(=O)N(c3ccc(F)cc3)C2=O)c(C)n1-c1ccccc1C(=O)O [Compound 55],58.5
13,Cc1cc(/C=C2\SC(=O)N(C)C2=O)c(C)n1-c1ccccc1C(=O)O [Compound 56],103
14,Cc1cc(/C=C2\SC(=O)N(C)C2=O)c(C)n1-c1ccccc1C(=O)O [Compound 57],92.2
15,Cc1cc(/C=C(/C#N)C(=O)NCCc2c[nH]c3ccccc23)c(C)n1-c1ccccc1C(=O)O [Compound 58],135
16,Cc1cc(/C=C(/C#N)c2nc3ccccc3[nH]2)c(C)n1-c1ccccc1C(=O)O [Compound 59],125
17,Cc1cccc(C)c1-c1ccccc1C(=O)O [Compound 60],89.1
18,Cc1cc(C(=O)N/N=C/c2ccccc2)c(C)n1-c1ccccc1C(=O)O [Compound 61],49.2
19,Cc1ccc(C)n1-c1cc(C(=O)NCCc2ccc(O)c(O)c2)ccc1C(=O)O [Compound 73],33.4
20,Cc1ccc(C)n1-c1cc(C(=O)N2CCOCC2)ccc1C(=O)O [Compound 75],8.58
21,Cc1ccc(C)n1-c1cc(C(=O)N/N=C/c2c[nH]cn2)ccc1C(=O)O [Compound 78],1.75

row,SMILES,IC50 [µM]
1,Cc1ccc(C)n1-c1cc(C(=O)N/N=C/c2ncc[nH]2)ccc1C(=O)O [Compound 81],2.72
2,Cc1ccc(C)n1-c1cc(C(=O)N/N=C/c2cccc(B(O)O)c2)ccc1C(=O)O [Compound 82],2.95
3,Cc1ccc(C)n1-c1cc(C(=O)N/N=C/c2ccc(O)cc2)ccc1C(=O)O [Compound 83],6.85
4,Cc1ccc(C)n1-c1cc(C(=O)N/N=C/c2ccc(S(=O)(=O)O)o2)ccc1C(=O)O [Compound 84],0.534
5,Cc1ccc(C)n1-c1cc(C(=O)N/N=C/c2cccnc2)ccc1C(=O)O [Compound 86],5.97
6,Cc1ccc(C)n1-c1cc(C(=O)N/N=C/c2c[nH]c3ccc(F)cc23)ccc1C(=O)O [Compound 95],23.3
7,Cc1ccc(C)n1-c1cc(C(=O)N/N=C/c2ccc(-c3cncnc3)cc2)ccc1C(=O)O [Compound 102],26.5
8,Cc1ccc(C)n1-c1cc(C(=O)N/N=C/c2ccc3nccnc3c2)ccc1C(=O)O [Compound 104],7.11
9,Cc1ccc(C)n1-c1cc(C(=O)N/N=C\c2ccc(O)c(F)c2)ccc1C(=O)O [Compound 117],6.52
10,Cc1ccc(C)n1-c1cc(C(=O)N/N=C\c2cc(F)c(C(=O)O)c(F)c2)ccc1C(=O)O [Compound 118],0.48
11,Cc1ccc(C)n1-c1cc(C(=O)N/N=C/c2cccc(C(=O)O)c2)ccc1C(=O)O [Compound 120],0.393
12,Cc1ccc(C)n1-c1cc(C(=O)N/N=C/c2ccccc2)ccc1C(=O)O [Compound 121],7.69
13,Cc1ccc(C)n1-c1cc(C(=O)N/N=C/c2ccc(C(=O)O)o2)ccc1C(=O)O [Compound 124],0.708
14,Cc1ccc(C)n1-c1cc(C(=O)N/N=C/c2cc(C(=O)O)ccc2F)ccc1C(=O)O [Compound 125],1.25
15,Cc1c2ccccc2c(C)n1-c1ccccc1C(=O)O [Compound 137],57.8
16,CN(C)c1ccc(/N=N/c2ccccc2C(=O)O)cc1 [Compound 154],43.4
17,CN1CCN(c2ccccc2C(=O)O)CC1 [Compound 156],346
18,Cc1ccc(C)n1-c1cc(C(=O)N2CCc3ccc(C(=O)O)cc3C2)ccc1C(=O)O [Compound 165],0.343
19,Cc1ccc(C)n1-c1cc(C(=O)NNC(=O)c2cccc(C(=O)O)c2)ccc1C(=O)O [Compound 166],1.89
